± gives the expanded uncertainty stated by the source.
Assay: xn = mol fraction of the nth substance listed
Details: 100 kPa, Liquid; for speed of sound: Frequency=3 MHz, Linear variable-path acoustic interferometer; for mass density: Pycnometric method

C=C(C)C(=O)OCC [ethyl 2-methylpropenoate] + N#Cc1ccccc1
Details	mass density, 308.15 K [kg/m3]	mass density, 313.15 K [kg/m3]	mass density, 318.15 K [kg/m3]	speed of sound, 308.15 K [m/s]	speed of sound, 313.15 K [m/s]	speed of sound, 318.15 K [m/s]
x2 = 0	896.94 ± 1	891.83 ± 1	886.71 ± 1	1139.4 ± 1.6	1121.5 ± 1.6	1104.6 ± 1.6
x2 = 0.0711	903.26 ± 1	898.24 ± 1	893.22 ± 1	1156.4 ± 1.6	1138.9 ± 1.6	1122.5 ± 1.6
x2 = 0.1419	909.61 ± 1	904.68 ± 1	899.75 ± 1	1172.7 ± 1.6	1155.3 ± 1.6	1139.1 ± 1.6
x2 = 0.2152	916.24 ± 1	911.41 ± 1	906.58 ± 1	1188.9 ± 1.6	1171.7 ± 1.6	1155.6 ± 1.6
x2 = 0.2872	922.82 ± 1	918.09 ± 1	913.35 ± 1	1204.6 ± 1.6	1187.4 ± 1.6	1171.4 ± 1.6
x2 = 0.3568	929.26 ± 1	924.62 ± 1	919.98 ± 1	1219.8 ± 1.6	1202.7 ± 1.6	1186.5 ± 1.6
x2 = 0.4307	936.17 ± 1	931.64 ± 1	927.11 ± 1	1236 ± 1.6	1218.9 ± 1.6	1202.7 ± 1.6
x2 = 0.4991	942.67 ± 1	938.23 ± 1	933.79 ± 1	1251.3 ± 1.6	1234.1 ± 1.6	1217.9 ± 1.6
x2 = 0.5752	949.99 ± 1	945.66 ± 1	941.33 ± 1	1268.7 ± 1.6	1251.8 ± 1.6	1235.6 ± 1.6
x2 = 0.6431	956.62 ± 1	952.39 ± 1	948.16 ± 1	1284.7 ± 1.7	1268.2 ± 1.6	1252.3 ± 1.6
x2 = 0.7177	964.02 ± 1	959.9 ± 1	955.78 ± 1	1303.5 ± 1.7	1287.3 ± 1.7	1271.8 ± 1.6
x2 = 0.7773	970 ± 1	965.97 ± 1	961.94 ± 1	1319.3 ± 1.7	1303.5 ± 1.7	1288.2 ± 1.7
x2 = 0.8576	978.17 ± 1	974.27 ± 1	970.37 ± 1	1341.8 ± 1.7	1326.1 ± 1.7	1311.3 ± 1.7
x2 = 0.9289	985.54 ± 1	981.75 ± 1	977.96 ± 1	1362.6 ± 1.7	1347.2 ± 1.7	1332.3 ± 1.7

Reference: the NIST ThermoML archive (doi:10.1016/j.jct.2018.12.031)
